Results as given in US9936701B2, “Herbicidal compounds” (Syngenta Participations AG, priority 2013, dated 2018).

Assays:
[1] = test system: a variety of test species; assay: Pre-emergence herbicidal activity (glasshouse, sprayed one day after sowing, evaluated after 13 days); format: in vivo; set-up: key: 5=total damage to plant; 0=no damage to plant; conditions: application pre-emergence, rate 1000 g/Ha, scale 0-5
Outline: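 Visual 0–5 injury score (5 = total damage) taken 13 days after spraying. Treatment applied one day after sowing, before emergence; glasshouse at 24/16 °C day/night, 14 h photoperiod, 65% humidity.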

[2] = test system: a variety of test species; assay: Post-emergence herbicidal activity (glasshouse, sprayed after 8 days cultivation, evaluated after 13 days); format: in vivo; set-up: key: 5=total damage to plant; 0=no damage to plant; conditions: rate 1000 g/Ha, scale 0-5
Outline: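 Damage was rated 0-5 (5 = total) 13 days after a post-emergence spray of acetone/water (50:50) plus 0.5% Tween 20 formulation. Plants were sprayed at 8 days' growth and kept at 24/16° C, 14 h light, 65% humidity, watered twice daily.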

| melting point | SMILES | Pre-emergence herbicidal damage score, ABUTH [1] | Pre-emergence herbicidal damage score, ALOMY [1] | Pre-emergence herbicidal damage score, AMARE [1] | Pre-emergence herbicidal damage score, ECHCG [1] | Pre-emergence herbicidal damage score, SETFA [1] | Pre-emergence herbicidal damage score, ZEAMX [1] | ABUTH (Abutilon theophrasti) damage score, application post-emergence [2] | ALOMY (Alopecurus myosuroides) damage score, application post-emergence [2] | AMARE (Amaranthus retroflexus) damage score, application post-emergence [2] | ECHCG (Echinochloa crus-galli) damage score, application post-emergence [2] | SETFA (Setaria faberi) damage score, application post-emergence [2] | ZEAMX (Zea mays) damage score, application post-emergence [2] |
| --- | --- | --- | --- | --- | --- | --- | --- | --- | --- | --- | --- | --- | --- |
| 123 to 133 °C | COC1=C(Cl)C(O)N(c2cc(C(C)(C)C)on2)C1=O (stereo not drawn) [E1, 1-(5-tert-butylisoxazol-3-yl)-3-chloro-2-hydroxy-4-methoxy-2H-pyrol-5-one] | 4 | 2 | 5 | 3 | 3 | 2 | 5 | 3 | 5 | 5 | 5 | 0 |
| 101 to 107 °C | COC1=C(Cl)C(OC(C)=O)N(c2cc(C(C)(C)C)on2)C1=O (stereo not drawn) [E2, [1-(5-tert-butylisoxazol-3-yl)-3-chloro-4-methoxy-5-oxo-2H-pyrrol-2-yl]acetate] | 5 | 3 | 5 | 4 | 3 | 1 | 5 | 3 | 5 | 5 | 5 | 0 |
| 94 to 106 °C | COC1=C(Cl)CN(c2cc(C(C)(C)C)on2)C1=O [E3] | 2 | 1 | 5 | 3 | 3 | 1 | 1 | 0 | 2 | 2 | 4 | 0 |

Second part, the molecule before the results:

| SMILES | melting point | Pre-emergence herbicidal damage score, ABUTH [1] | Pre-emergence herbicidal damage score, ALOMY [1] | Pre-emergence herbicidal damage score, AMARE [1] | Pre-emergence herbicidal damage score, ECHCG [1] | Pre-emergence herbicidal damage score, SETFA [1] | Pre-emergence herbicidal damage score, ZEAMX [1] | ABUTH (Abutilon theophrasti) damage score, application post-emergence [2] | ALOMY (Alopecurus myosuroides) damage score, application post-emergence [2] | AMARE (Amaranthus retroflexus) damage score, application post-emergence [2] | ECHCG (Echinochloa crus-galli) damage score, application post-emergence [2] | SETFA (Setaria faberi) damage score, application post-emergence [2] | ZEAMX (Zea mays) damage score, application post-emergence [2] |
| --- | --- | --- | --- | --- | --- | --- | --- | --- | --- | --- | --- | --- | --- |
| COC1=C(C)C(=O)N(c2noc(C(C)C)c2C#N)C1O (stereo not drawn) [G4] | 133 to 135 °C | 4 | 3 | 5 | 5 | 5 | 2 | 5 | 5 | 5 | 5 | 5 | 4 |
| CCC(C)(C)c1onc(N2C(=O)C(C)=C(OC)C2O)c1C#N (stereo not drawn) [G5] | 122 to 124 °C | 5 | 3 | 5 | 5 | 5 | 2 | 5 | 5 | 5 | 5 | 5 | 3 |
| COC1=C(C)C(=O)N(c2cc(C(C)(C)C#N)on2)C1O (stereo not drawn) [G6] | 121 to 123 °C | 5 | 4 | 5 | 4 | 5 | 4 | 5 | 5 | 5 | 5 | 5 | 5 |
